In patent US20230002375A1, “HYDROPYRAZINO[1,2-B]ISOQUINOLINE COMPOUNDS FOR THE TREATMENT OF AUTOIMMUNE DISEASE” (Hoffmann-La Roche Inc., priority 2019, published 2023):

Molecular target: T1, hERG K+ channel (Homo sapiens, UniProt Q12809)
T1 construct: expressed in transfected cells; host or cells: CHO (Chinese hamster ovary) cells, CHOhERG
Assay: hERG channel inhibition assay (patch-clamp, CHOhERG cells)
Assay type: cell-based
Settings: whole-cell patch-clamp; for IC20: human, CHO cells stably expressing hERG
Description: hERG Channel Inhibition Assay
The hERG K^+ channels were cloned in humans and stably expressed in a CHO (Chinese hamster ovary) cell line. CHOhERG cells were used for patch-clamp (voltage-clamp, whole-cell) experiments. Cells were stimulated by a voltage pattern to activate hERG channels and conduct IKhERG Currents (rapid delayed outward rectifier potassium current of the hERG channel). After the cells were stabilized for a few minutes, the amplitude and kinetics of IKhERG were recorded at a stimulation frequency of 0.1 Hz (6 bpm). Thereafter, the test compound was added to the preparation at increasing concentrations. For each concentration, an attempt was made to reach a steady-state effect, usually, this was achieved within 3-10 min at which time the next highest concentration was applied. The amplitude and kinetics of IKhERG are recorded in each concentration of the drug which were compared to the control values (taken as 100%). (references: Redfern W S, Carlsson L, Davis A S, Lynch W G, MacKenzie I, Palethorpe S, Siegl P K, Strang I, Sullivan A T, Wallis R, Camm A J, Hammond T G. 2003; Relationships between preclinical cardiac electrophysiology, clinical QT interval prolongation and torsade de pointes for a broad range of drugs: evidence for a provisional safety margin in drug development. Cardiovasc. Res. 58:32-45, Sanguinetti M C, Tristani-Firouzi M. 2006; hERG potassium channels and cardiac arrhythmia. Nature 440:463-469, Webster R, Leishman D, Walker D. 2002; Towards a drug concentration effect relationship for QT prolongation and torsades de pointes. Curr. Opin. Drug Discov. Devel. 5:116-26).

T1 sequence (Q12809 whole entry): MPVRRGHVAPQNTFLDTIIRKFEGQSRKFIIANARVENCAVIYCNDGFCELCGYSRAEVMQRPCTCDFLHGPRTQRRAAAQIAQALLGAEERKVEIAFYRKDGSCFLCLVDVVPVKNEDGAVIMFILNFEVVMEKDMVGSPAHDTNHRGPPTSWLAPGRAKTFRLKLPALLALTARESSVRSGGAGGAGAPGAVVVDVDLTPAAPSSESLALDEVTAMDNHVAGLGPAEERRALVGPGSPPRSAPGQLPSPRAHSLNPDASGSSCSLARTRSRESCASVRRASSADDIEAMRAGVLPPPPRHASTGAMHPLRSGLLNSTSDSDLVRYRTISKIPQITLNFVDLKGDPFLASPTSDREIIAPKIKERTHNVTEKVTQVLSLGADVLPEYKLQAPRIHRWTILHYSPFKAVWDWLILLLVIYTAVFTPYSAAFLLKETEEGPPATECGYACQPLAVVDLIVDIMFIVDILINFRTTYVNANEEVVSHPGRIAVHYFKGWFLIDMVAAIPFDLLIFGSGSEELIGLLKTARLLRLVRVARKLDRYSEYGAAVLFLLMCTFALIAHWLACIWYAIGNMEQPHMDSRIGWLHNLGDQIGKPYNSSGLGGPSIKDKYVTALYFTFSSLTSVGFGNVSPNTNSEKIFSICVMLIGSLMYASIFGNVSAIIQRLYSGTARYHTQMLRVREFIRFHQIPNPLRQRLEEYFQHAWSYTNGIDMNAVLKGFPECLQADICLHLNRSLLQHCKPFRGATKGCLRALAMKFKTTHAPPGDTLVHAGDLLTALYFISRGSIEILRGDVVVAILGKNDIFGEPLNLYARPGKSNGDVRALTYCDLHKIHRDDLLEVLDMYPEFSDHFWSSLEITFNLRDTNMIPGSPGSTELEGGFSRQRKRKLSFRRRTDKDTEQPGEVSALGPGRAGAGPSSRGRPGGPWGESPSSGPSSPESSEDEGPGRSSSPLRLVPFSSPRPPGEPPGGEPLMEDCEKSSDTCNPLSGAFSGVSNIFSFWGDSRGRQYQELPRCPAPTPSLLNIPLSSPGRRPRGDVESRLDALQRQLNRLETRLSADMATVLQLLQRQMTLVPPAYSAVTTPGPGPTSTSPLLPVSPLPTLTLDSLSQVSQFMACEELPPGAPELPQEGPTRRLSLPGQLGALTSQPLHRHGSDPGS

SMILES | IC20 | IC50
C[C@@H]1CN(c2ccc(C#N)c3ncccc23)C[C@@H]2Cc3cc(N4C[C@@H]5CNCCN5C4=O)ccc3CN21 (single isomer, unassigned) [Example 17A] | > 10 µM | > 20 µM
C[C@@H]1CN(c2ccc(C#N)c3ncccc23)C[C@@H]2Cc3cc(N[C@@H]4CNC[C@@H]4F)ccc3CN21 [Example 6, 5-[(4R,11aS)-4-methyl-9-[[(3R,4S)-4-fluoropyrrolidin-3-yl]amino]-1,3,4,6,11,11a-hexahydropyrazino[1,2-b]isoquinolin-2-yl]quinoline-8-carbonitrile] | > 10 µM | > 20 µM
C[C@@H]1CN(c2ccc(C#N)c3ncccc23)C[C@@H]2Cc3cc(OC[C@@H]4CCN4)ccc3CN21 [Example 12, 5-[(4R,11aS)-9-[[(2S)-azetidin-2-yl]methoxy]-4-methyl-1,3,4,6,11,11a-hexahydropyrazino[1,2-b]isoquinolin-2-yl]quinoline-8-carbonitrile] | 8.2 µM | > 20 µM
